The results in this text go back to ChEMBL document CHEMBL1132085, “Analogues of 4,5-bis(3,5-dichlorophenyl)-2-trifluoromethyl-1H-imidazole as potential antibacterial agents” (1999).

Assay type in all cases: functional
Test [1] deals with Escherichia coli. As to the kind of experiment: Antibacterial activity against Escherichia coli (Ec).
For the next test, the system named is Staphylococcus aureus. As to the kind of experiment: Antibacterial activity against methicillin resistant Staphylococcus aureus (MRSA).
For test [2], the system named is Escherichia coli. As to the kind of experiment: Antibacterial activity against Escherichia coli +polymyxin (Ec+).
In another test the test system is Bacillus subtilis. As to the kind of experiment: Antibacterial activity against Bacillus subtilis (Bs).

Converted amounts (≈) assume the structure as drawn.

In the case of `FC(F)(F)c1nc(-c2cc(Cl)cc(Cl)c2)c(-c2cc(Cl)cc(Cl)c2)[nH]1`, the MIC in the test on Escherichia coli [1] was more than 32 µg/mL; in the test with Staphylococcus aureus it was 0.25 µg/mL (≈ 0.587 µM); with Escherichia coli [2] it was 16 µg/mL (≈ 37.6 µM); in the test on Bacillus subtilis, 4 µg/mL (≈ 9.39 µM).

Turning to `CSc1nc(-c2cc(Cl)cc(Cl)c2)c(-c2cc(Cl)cc(Cl)c2)[nH]1`, the MIC in the test with Escherichia coli [1], against Staphylococcus aureus, in the test on Escherichia coli [2] and against Bacillus subtilis was more than 32 µg/mL throughout.

For `Clc1cc(Cl)cc(-c2nc[nH]c2-c2cc(Cl)cc(Cl)c2)c1`, the MIC was more than 32 µg/mL against Escherichia coli [1], more than 32 µg/mL against Staphylococcus aureus, 8 µg/mL (≈ 22.3 µM) with Escherichia coli [2] and 4 µg/mL (≈ 11.2 µM) in the test with Bacillus subtilis.

Turning to `CCNC(=O)c1nc(-c2cc(Cl)cc(Cl)c2)c(-c2cc(Cl)cc(Cl)c2)[nH]1`, the MIC against Escherichia coli [1], against Staphylococcus aureus, against Escherichia coli [2] and against Bacillus subtilis was more than 32 µg/mL in each case.

In the case of `COC(=O)c1nc(-c2cc(Cl)cc(Cl)c2)c(-c2cc(Cl)cc(Cl)c2)[nH]1`, the MIC with Escherichia coli [1], with Staphylococcus aureus, against Escherichia coli [2] and in the test on Bacillus subtilis was more than 32 µg/mL each time.

As for `Oc1nc(-c2cc(Cl)cc(Cl)c2)c(-c2cc(Cl)cc(Cl)c2)[nH]1`, the MIC against Escherichia coli [1] is more than 32 µg/mL; in the test on Staphylococcus aureus it was 8 µg/mL (≈ 21.4 µM); in the test on Escherichia coli [2], 8 µg/mL (≈ 21.4 µM); in the test on Bacillus subtilis, 4 µg/mL (≈ 10.7 µM).

Consider `Cc1nc(-c2cc(Cl)cc(Cl)c2)c(-c2cc(Cl)cc(Cl)c2)[nH]1`, for which the MIC in the test with Escherichia coli [1], in the test with Staphylococcus aureus, in the test on Escherichia coli [2] and with Bacillus subtilis was more than 32 µg/mL each time.

As for `CS(=O)(=O)c1nc(-c2cc(Cl)cc(Cl)c2)c(-c2cc(Cl)cc(Cl)c2)[nH]1`, the MIC in the test on Escherichia coli [1] is more than 32 µg/mL; in the test on Staphylococcus aureus, 4 µg/mL (≈ 9.17 µM); against Escherichia coli [2], 4 µg/mL (≈ 9.17 µM); in the test on Bacillus subtilis, 4 µg/mL (≈ 9.17 µM).

Take `Nc1nc(-c2cc(Cl)cc(Cl)c2)c(-c2cc(Cl)cc(Cl)c2)[nH]1`: the MIC against Escherichia coli [1] is more than 32 µg/mL; with Staphylococcus aureus, 2 µg/mL (≈ 5.36 µM); in the test on Escherichia coli [2], 8 µg/mL (≈ 21.4 µM); with Bacillus subtilis it was 4 µg/mL (≈ 10.7 µM).

Turning to `FC(F)(F)c1nc(-c2cc(Cl)cc(Cl)c2)c[nH]1`, the MIC against Escherichia coli [1] is more than 32 µg/mL; against Staphylococcus aureus, 16 µg/mL (≈ 56.9 µM); against Escherichia coli [2], 8 µg/mL (≈ 28.5 µM); against Bacillus subtilis, 16 µg/mL (≈ 56.9 µM).

As for `Cn1c(C(F)(F)F)nc(-c2cc(Cl)cc(Cl)c2)c1-c1cc(Cl)cc(Cl)c1`, the MIC against Escherichia coli [1] was more than 32 µg/mL; against Staphylococcus aureus, 8 µg/mL (≈ 18.2 µM); with Escherichia coli [2] it was more than 32 µg/mL; against Bacillus subtilis, 4 µg/mL (≈ 9.09 µM).

As to `O=Cc1nc(-c2cc(Cl)cc(Cl)c2)c(-c2cc(Cl)cc(Cl)c2)[nH]1`, the MIC is more than 32 µg/mL with Escherichia coli [1], 2 µg/mL (≈ 5.18 µM) in the test on Staphylococcus aureus, more than 32 µg/mL against Escherichia coli [2] and 2 µg/mL (≈ 5.18 µM) against Bacillus subtilis.

For the molecule `Sc1nc(-c2cc(Cl)cc(Cl)c2)c(-c2cc(Cl)cc(Cl)c2)[nH]1`, the minimal inhibitory concentration (MIC) with Escherichia coli [1], in the test with Staphylococcus aureus, in the test with Escherichia coli [2] and against Bacillus subtilis was more than 32 µg/mL throughout.

By MIC is commonly meant the smallest concentration in the dilution series that meets the test's criterion for growth inhibition. Low readings indicate greater potency, high ones weaker potency.
